Experimental data as given in patent US12569500B2, “Combination comprising tricycle compound and use thereof in preparation of medicament for treating HBV” (FUJIAN AKEYLINK BIOTECHNOLOGY CO., LTD., priority 2020, dated 2026).
Read-outs that look alike come from different tables or passages of the source.

Assays:
HepG2.2.15 cells = assay: CellTiter-Glo cytotoxicity of compound 1 / TDF combination; format: cell-based
Procedure: 1.1 Day 1, HepG2.2.15 cells were seeded into a 96-well cell culture plate at a density of 40,000 cells/well, and then the cells were cultured overnight at 5% CO2 and 37° C.
1.2 Day 2, the compound 1 and TDF were combined with 7 different concentrations (selected about 8×, 4×, 2×, 1×, 0.5×, 0.25×, 0.125×EC50 concentration gradient) for orthogonal proportioning, and added to 96-well plate, each combination is 3 double plates, and the final concentration of DMSO is 0.5%.
1.3 Day 5, the cell supernatant was discarded, a fresh medium containing the compound was added, and the cells were cultured under 5% CO2, 37° C. for 3 days. On the 8th day, the supernatant from the cell plate treated with the compound was extracted according to the QIAamp 96 DNA Blood Kit (12) instruction.
MacSynegy software (Prichard et al., 1990) was used to process the HBV DNA copy number test data and analyze the effect parameters of compound 1 and TDF in combination. The CellTiter-Glo kit was used to detect the cytotoxicity of the compounds to HepG2.2.15 cells. According to the kit instructions, use a multifunctional microplate reader to detect the chemiluminescence intensity (RLU) of each cell well.

[1] = Pharmacokinetic analysis of test compounds in AAV/HBV model mice; format: in vivo, C57BL/6 mice
HBV = assay: Single agent anti-HBV activity, HBV DNA in supernatant by quantitative PCR, HepG2.2.15 cells; format: cell-based; conditions: Hepatitis B virus, 192 h, day 8
Procedure: (§1) Cell line: HepG2.2.15 cells are constructed and provided by WuXi AppTec. The cell culture medium is DMEM/F12 medium supplemented with 2% fetal bovine serum, 2 mM glutamine, 1×non-essential amino acids, 100 U/mL penicillin and 100 µg/mL streptomycin.
(§2) 2.1.1 On the first day, HepG2.2.15 cells were seeded into a 96-well cell culture plate at a density of 60,000 cells/well, and then the cells were cultured overnight at 5% CO2 and 37° C. On the second day, the compound 1 and the compound of formula (IIb) and the compound of formula (IIIb) were diluted and added to a 96-well plate. Each combination was a three-fold plate. The cells were cultured under 5% CO2 and 37° C. for 3 days. On the 5th day, a new culture medium containing the compound was replaced, and the supernatant was collected on the 8th day. The HBsAg in the supernatant was detected by ELISA, and the DNA in the supernatant was extracted at the same time, and the content of HBV DNA in the supernatant was detected by quantitative PCR. After collecting the cell supernatant, add CellTiter-Glo to detect cell viability.

[2] = Single agent cytotoxicity, CellTiter-Glo; format: cell-based; conditions: human, HepG2.2.15 cells
Procedure: as §1, §2

[3] = 10 mg/kg, BID, AAV/HBV model mice, day 27
[4] = C57BL/6, mouse, serum, po, 10 mg/kg, BID, AAV/HBV model mice, day 27

Cc1cc2n(c1)S(=O)(=O)c1ccc(C(=O)NCC[C@H]3COCCO3)cc1NC2=O [Compound 1]
average cell viability percentage (HepG2.2.15 cells; Compound 1 0.533 nM + TDF 0 nM): 121.5% | average cell viability percentage (HepG2.2.15 cells; Compound 1 1.065 nM + TDF 0 nM): 128.1% | average cell viability percentage (HepG2.2.15 cells; Compound 1 2.131 nM + TDF 0 nM): 124.5% | average cell viability percentage (HepG2.2.15 cells; Compound 1 4.261 nM + TDF 0 nM): 125.1% | average cell viability percentage (HepG2.2.15 cells; Compound 1 8.522 nM + TDF 0 nM): 124.3% | average cell viability percentage (HepG2.2.15 cells; Compound 1 17.04 nM + TDF 0 nM): 123.1% | average cell viability percentage (HepG2.2.15 cells; Compound 1 34.09 nM + TDF 0 nM): 115.2% | AUC0-inf/AUC0-last [1, 3]: 101% | Tlast [1, 3]: 24.0 h | T 1/2 calculation time range ([1]; 10 mg/kg, BID, AAV/HBV model mice, day 27, in h): 9-24 | AUC(0-t) ([1]; C57BL/6, mouse, serum, po, 10 mg/kg, BID, AAV/HBV model mice, day 27, read-out: AUC0-8): 26 µM·h | AUC(0-t) ([1]; C57BL/6, mouse, serum, po, 10 mg/kg, BID, AAV/HBV model mice, day 27, read-out: AUC0-last): 47.3 µM·h | AUC(0-inf) [1, 4]: 47.6 µM·h | Cmax [1, 4]: 12200 nM | Tmax [1, 4]: 1 h | half-life [1, 4]: 2.23 h | MRT inf ([1]; C57BL/6, mouse, serum, po, 10 mg/kg, BID, AAV/HBV model mice, day 27, read-out: MRT0-inf): 6.36 h | MRT last ([1]; C57BL/6, mouse, serum, po, 10 mg/kg, BID, AAV/HBV model mice, day 27, read-out: MRT0-last): 6.27 h | concentration at 0 h ([1]; C57BL/6, mouse, serum, group 2, 10 mg/kg BID oral, day 27, 0 hours (before dosage), read-out: average drug concentration in the mouse serum): 78 nM | concentration at 4 h ([1]; C57BL/6, mouse, serum, group 2, 10 mg/kg BID oral, day 27, 4 hours after the first dosage, read-out: average drug concentration in the mouse serum): 1630 nM | concentration at 8 h ([1]; C57BL/6, mouse, serum, group 2, 10 mg/kg BID oral, day 27, 8 hours after the first dosage, read-out: average drug concentration in the mouse serum): 605 nM | concentration at 9 h ([1]; C57BL/6, mouse, serum, group 2, 10 mg/kg BID oral, day 27, 9 hours after the first dosage, read-out: average drug concentration in the mouse serum): 10300 nM | concentration at 12 h ([1]; C57BL/6, mouse, serum, group 2, 10 mg/kg BID oral, day 27, 12 hours after the first dosage, read-out: average drug concentration in the mouse serum): 1280 nM | concentration at 24 h ([1]; C57BL/6, mouse, serum, group 2, 10 mg/kg BID oral, day 27, 24 hours after the first dosage, read-out: average drug concentration in the mouse serum): 66 nM | EC50 (HBV): 6.03 nM | CC50 at 6 days [2]: > 1000 nM
